According to patent US20110098296A1, “Thiazole And Oxazole Kinase Inhibitors” (priority 2007, published 2011):
Counter-ions that a name gives are not always drawn.

Experiments:
EGFR = biological target: T1, EGFR (Homo sapiens, UniProt P00533); experiment: EGFR substrate phosphorylation assay (HTRF); format: biochemical; conditions: Method (A): Enzyme Mix incubated with compound at 20° C. for 1 hr, reaction started by adding Substrate Mix
T1 construct: made in house; host or cells: baculovirus expression system
T1 sequence (P00533 25-1210): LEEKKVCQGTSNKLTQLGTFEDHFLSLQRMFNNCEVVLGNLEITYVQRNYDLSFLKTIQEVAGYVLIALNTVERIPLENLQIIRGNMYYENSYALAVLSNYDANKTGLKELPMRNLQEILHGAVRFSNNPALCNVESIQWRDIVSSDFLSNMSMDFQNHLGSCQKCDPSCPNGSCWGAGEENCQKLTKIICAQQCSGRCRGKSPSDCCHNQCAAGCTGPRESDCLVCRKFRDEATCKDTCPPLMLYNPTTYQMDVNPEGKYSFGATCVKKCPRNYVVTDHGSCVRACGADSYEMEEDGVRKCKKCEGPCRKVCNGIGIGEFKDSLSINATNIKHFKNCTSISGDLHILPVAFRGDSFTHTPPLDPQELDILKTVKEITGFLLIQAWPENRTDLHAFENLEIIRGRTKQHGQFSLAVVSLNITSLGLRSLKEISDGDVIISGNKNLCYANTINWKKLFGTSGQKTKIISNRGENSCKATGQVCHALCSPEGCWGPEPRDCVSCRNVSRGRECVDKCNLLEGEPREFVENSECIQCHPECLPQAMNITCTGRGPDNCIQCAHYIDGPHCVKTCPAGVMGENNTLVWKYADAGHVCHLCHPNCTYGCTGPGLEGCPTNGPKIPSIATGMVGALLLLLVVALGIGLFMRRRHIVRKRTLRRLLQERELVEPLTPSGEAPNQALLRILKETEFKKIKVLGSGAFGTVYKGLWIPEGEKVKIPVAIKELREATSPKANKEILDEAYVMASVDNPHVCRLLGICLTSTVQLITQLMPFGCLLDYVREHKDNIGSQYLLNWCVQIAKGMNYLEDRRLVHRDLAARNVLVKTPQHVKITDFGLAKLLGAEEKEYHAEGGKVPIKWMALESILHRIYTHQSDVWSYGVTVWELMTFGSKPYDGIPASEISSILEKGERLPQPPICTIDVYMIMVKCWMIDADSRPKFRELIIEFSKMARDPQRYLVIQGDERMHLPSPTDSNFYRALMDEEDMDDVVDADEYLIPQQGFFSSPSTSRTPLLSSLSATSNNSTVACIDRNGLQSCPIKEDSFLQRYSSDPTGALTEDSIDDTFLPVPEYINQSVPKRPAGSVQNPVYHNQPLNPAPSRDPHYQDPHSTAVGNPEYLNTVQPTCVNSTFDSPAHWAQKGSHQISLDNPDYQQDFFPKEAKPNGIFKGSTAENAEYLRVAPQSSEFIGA
How it was run: (§1)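 Baculovirus-expressed kinase (0.8 nM EGFR or 10 nM ErbB2 in enzyme mix) with Peptide C 0.8 μM and ATP 20 μM (substrate-mix levels), MOPS pH 7.5, MnCl2; 90 min, 20 °C, HTRF anti-phosphotyrosine. Method A adds 1 h enzyme–compound preincubation; B none. pIC50, final compound 0.00027–47.6 μM.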

BT474 tumor cells = experiment: Method C: Cell Growth Inhibition Assay (CellTiter-Glo), BT474; format: cell-based; conditions: Homo sapiens, BT-474, 72 h, 3 days, 4-parameter fit
HT-29 tumor cells = experiment: Method C: Cell Growth Inhibition Assay (CellTiter-Glo), HT-29; format: cell-based; conditions: Homo sapiens, HT-29, 72 h, 3 days, 4-parameter fit
Method: (§2) Human breast tumor cells (BT474) were cultured in RPMI (Mediatech 50-011-PB), containing 10% FBS (JRH Biosciences 12176) and 1% penicillin-streptomycin (Invitrogen 15140). Human head and neck tumor cells (HN5) were cultured in high glucose DMEM (Mediatech 50-013-PB) containing 10% FBS and 1% penicillin-streptomycin. Human colon tumor cells (Colo205) were cultured in RPMI (Mediatech 50-020-PB) containing 10% FBS and 1% penicillin-streptomycin. Human melanoma cancer cells (SK-MEL-28) were cultured in EMEM with nonessential amino acids (Mediatech 50-011-PB) containing 10% FBS, 1% sodium pyruvate (JT Baker 3354-04), and 1% penicillin-streptomycin. Human melanoma cancer cells (A375P F11s) were cultured in RPMI (Mediatech 50-020-PB) containing 10% FBS, 1% sodium pyruvate, and 1% penicillin-streptomycin. Human colon cancer cells (HT-29) were cultured in high glucose DMEM (Mediatech 50-013-PB) containing 10% FBS and 1% penicillin-streptomycin. Human melanoma cancer cells (SK-MEL-3) were cultured in McCoy's 5A (50-025-PB) containing 15% FBS, and 1% penicillin-streptomycin. All cell lines were maintained at 37° C. in a humidified 5% CO2, 95% air incubator. Cells were harvested using trypsin/EDTA (Invitrogen 25200), counted using an haemocytometer, and plated. For 96-well assays (using white full-area NUNC plates cat. #136102), cells were plated in 105 μL at the following densities (cells/well): HN5, 500; Colo205, 500; SK-MEL-28, 500; A375P-F11s, 500; HT-29, 500; SK-MEL-3, 500; and BT474, 3000. For 384-well assays (white full-area NUNC plates, cat. #781080), cells were plated in 48 μL at the following densities (cells/well): HN5, 500; Colo205, 500; SK-MEL-28, 500; A375P-F11s, 500; HT29, 500; SK-MEL-3, 500; and BT474, 2000.
(§3) The next day, compounds were diluted as follow: For 96-well assays, 13.5 μL of compound in DMSO were diluted using nine (9) serial 1:3 dilutions of 4.5 μL in 9 μL of DMSO. Medium (270 μl/well of RPMI with 10% FBS and 1% penicillin-streptomycin) was added to the plates. Aliquots (7 μl) were added to cells in the final assay giving a final DMSO concentration of 0.2%. For 384-well assays, 15 μL of compound in DMSO were diluted using nine (9) serial 1:3 dilutions of 5 μL in 10 μL of DMSO, followed by a further dilution of 5 μL of compound with 95 μL of medium, of which 2 μL were added to cells in the final assay giving a final DMSO concentration of 0.2%. Cells were incubated at 37° C., 5% CO2 for 3 days.
(§4) Total ATP was measured (as a surrogate estimate of cell number) using CellTiter-Glo® reagent (Promega G7571). Briefly, plates were removed from the incubator and allowed to equilibrate to room temperature for 30 minutes. CellTiter-Glo® (25 μL or 55 μL for 384-well or 96-well assays, respectively) reagent was added to each well and plates were shaken on an orbital plate shaker for 2 mins. Plates were incubated without shaking for a further 30 mins and read on an LJL Analyst GT reader in luminometer mode with an integration time of 0.5 seconds per well. Percent inhibition of cell growth was calculated relative to DMSO vehicle-treated control wells. Concentration of compound required to give 50% inhibition of vehicle-treated control cell growth (IC50) was interpolated using a 4-parameter fit for determining IC50 using the following equation: Y=A+((B−A)/(1+((C/X)̂D))) where X=IC50.

SK-MEL-3 tumor cells = experiment: Method C: Cell Growth Inhibition Assay (CellTiter-Glo), SK-MEL-3; format: cell-based; conditions: Homo sapiens, SK-MEL3, 72 h, 3 days, 4-parameter fit
Method: as §2, §3, §4

HN5 tumor cells = experiment: Method C: Cell Growth Inhibition Assay (CellTiter-Glo), HN5; format: cell-based; conditions: Homo sapiens, 72 h, 3 days, 4-parameter fit
Method: as §2, §3, §4

A375P F11s tumor cells = experiment: Method C: Cell Growth Inhibition Assay (CellTiter-Glo), A375P F11s; format: cell-based; conditions: Homo sapiens, 72 h, 3 days, 4-parameter fit
Method: as §2, §3, §4

SK-MEL-28 tumor cells = experiment: Method C: Cell Growth Inhibition Assay (CellTiter-Glo), SK-MEL-28; format: cell-based; conditions: Homo sapiens, SK-MEL-28, 72 h, 3 days, 4-parameter fit
How it was run: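 Plating at 500 cells/well is followed the next day by addition of compound as a 1:3 serial dilution series. After 3 days' incubation, CellTiter-Glo luminescence is read and IC50 is calculated versus DMSO wells.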

Colo205 tumor cells = experiment: Method C: Cell Growth Inhibition Assay (CellTiter-Glo), Colo205; format: cell-based; conditions: Homo sapiens, COLO 205, 72 h, 3 days, 4-parameter fit
How it was run: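 Luminescent ATP signal (CellTiter-Glo, after 30 min room-temperature equilibration) served as a surrogate for cell number after a 3-day compound exposure at 37° C. Cells were plated at 500/well and treated with serially diluted compound at 0.2% DMSO. IC50 values are 4-parameter fits against DMSO-treated wells.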

ErbB2 = biological target: T2, ErbB2 (Homo sapiens, UniProt P04626); experiment: ErbB-2 substrate phosphorylation assay (HTRF); format: biochemical; conditions: Method (A): Enzyme Mix incubated with compound at 20° C. for 1 hr, reaction started by adding Substrate Mix
T2 construct: made in house; host or cells: baculovirus expression system
T2 sequence (P04626 23-1255): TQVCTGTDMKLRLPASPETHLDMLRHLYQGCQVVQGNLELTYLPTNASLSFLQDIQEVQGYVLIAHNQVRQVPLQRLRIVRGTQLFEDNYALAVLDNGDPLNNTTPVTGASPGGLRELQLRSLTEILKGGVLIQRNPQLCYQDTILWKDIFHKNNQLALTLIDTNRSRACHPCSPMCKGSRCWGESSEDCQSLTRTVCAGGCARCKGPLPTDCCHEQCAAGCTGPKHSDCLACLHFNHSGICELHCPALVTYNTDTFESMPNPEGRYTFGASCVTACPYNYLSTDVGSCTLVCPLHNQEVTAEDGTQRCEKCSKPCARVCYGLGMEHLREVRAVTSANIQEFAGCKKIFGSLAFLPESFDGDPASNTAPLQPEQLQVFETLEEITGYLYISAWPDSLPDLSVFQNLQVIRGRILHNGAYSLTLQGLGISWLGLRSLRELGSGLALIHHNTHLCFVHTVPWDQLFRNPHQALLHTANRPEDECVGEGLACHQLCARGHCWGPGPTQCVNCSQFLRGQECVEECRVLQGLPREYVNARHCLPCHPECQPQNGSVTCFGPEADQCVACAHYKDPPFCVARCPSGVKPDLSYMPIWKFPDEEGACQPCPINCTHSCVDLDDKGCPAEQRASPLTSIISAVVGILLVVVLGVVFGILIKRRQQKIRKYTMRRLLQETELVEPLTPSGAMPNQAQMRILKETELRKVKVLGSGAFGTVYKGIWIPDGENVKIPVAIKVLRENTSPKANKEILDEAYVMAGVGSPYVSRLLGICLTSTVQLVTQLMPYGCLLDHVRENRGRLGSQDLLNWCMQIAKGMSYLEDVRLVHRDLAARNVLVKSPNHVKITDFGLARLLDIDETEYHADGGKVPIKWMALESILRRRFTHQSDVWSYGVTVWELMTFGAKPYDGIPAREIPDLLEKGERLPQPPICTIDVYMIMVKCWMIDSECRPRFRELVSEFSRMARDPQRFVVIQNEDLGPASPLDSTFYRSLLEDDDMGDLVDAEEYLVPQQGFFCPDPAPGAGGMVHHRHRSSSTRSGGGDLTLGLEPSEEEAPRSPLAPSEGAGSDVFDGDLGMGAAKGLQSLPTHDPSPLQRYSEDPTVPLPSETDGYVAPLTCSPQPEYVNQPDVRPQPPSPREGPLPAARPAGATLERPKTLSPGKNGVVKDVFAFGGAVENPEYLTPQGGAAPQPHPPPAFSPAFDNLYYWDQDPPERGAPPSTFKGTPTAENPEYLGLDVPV
How it was run: as §1

IC50 (EGFR) | IC50 (BT474 tumor cells) | IC50 (HT-29 tumor cells) | IC50 (SK-MEL-3 tumor cells) | IC50 (HN5 tumor cells) | IC50 (A375P F11s tumor cells) | IC50 (SK-MEL-28 tumor cells) | IC50 (Colo205 tumor cells) | IC50 (ErbB2) | SMILES
< 100 nM | 100 to 1000 nM | 100 to 1000 nM | 100 to 1000 nM | 100 to 1000 nM | 100 to 1000 nM | 100 to 1000 nM | 100 to 1000 nM | < 100 nM | CCNc1nc(-c2cccc(NC(=O)c3c(F)cccc3F)c2)c(-c2ccnc(Nc3ccc(OCCN(C)C)c(Cl)c3)n2)s1 [Example 25]
< 100 nM | < 100 nM | 100 to 1000 nM | 100 to 1000 nM | < 100 nM | 100 to 1000 nM | 100 to 1000 nM | 100 to 1000 nM | < 100 nM | COCCNc1nc(-c2cccc(NC(=O)c3c(F)cccc3F)c2)c(-c2ccnc(Nc3ccc(OCCN4CCCC4)c(Cl)c3)n2)s1 [Example 27, N-[3-(5-{2-[(3-Chloro-4-{[2-(1-pyrrolidinyl)ethyl]oxy}phenyl)amino]-4-pyrimidinyl}-2-{[2-(methyloxy)ethyl]amino}-1,3-thiazol-4-yl)phenyl]-2,6-difluorobenzamide]
< 100 nM | < 100 nM | 100 to 1000 nM | 100 to 1000 nM | 100 to 1000 nM | 100 to 1000 nM | 100 to 1000 nM | 100 to 1000 nM | < 100 nM | O=C(Nc1cccc(-c2nc(NCCCN3CCOCC3)sc2-c2ccnc(Nc3cccc(CN4CCCC4)c3)n2)c1)c1c(F)cccc1F [Example 28, 2,6-Difluoro-N-{3-[2-{[3-(4-morpholinyl)propyl]amino}-5-(2-{[3-(1-pyrrolidinylmethyl)phenyl]amino}-4-pyrimidinyl)-1,3-thiazol-4-yl]phenyl}benzamide]
< 100 nM | 100 to 1000 nM | 100 to 1000 nM | 100 to 1000 nM | < 100 nM | 100 to 1000 nM | > 1000 nM | 100 to 1000 nM | < 100 nM | CN1CCc2ccc(Nc3nccc(-c4sc(NCCCN5CCOCC5)nc4-c4cccc(NC(=O)c5c(F)cccc5F)c4)n3)cc2C1 [Example 31]
< 100 nM | 100 to 1000 nM | 100 to 1000 nM | 100 to 1000 nM | < 100 nM | 100 to 1000 nM | 100 to 1000 nM | 100 to 1000 nM | < 100 nM | COc1ccc(Nc2nccc(-c3sc(NC4CC4)nc3-c3cccc(NC(=O)c4c(F)cccc4F)c3)n2)cc1OCCN(C)C [Example 32, N-{3-[2-(cyclopropylamino)-5-(2-{[3-{[2-(dimethylamino)ethyl]oxy}-4-(methyloxy)phenyl]amino}-4-pyrimidinyl)-1,3-thiazol-4-yl]phenyl}-2,6-difluorobenzamide]

Second part, the compound before the results:

SMILES | IC50 (EGFR) | IC50 (BT474 tumor cells) | IC50 (HT-29 tumor cells) | IC50 (SK-MEL-3 tumor cells) | IC50 (HN5 tumor cells) | IC50 (A375P F11s tumor cells) | IC50 (SK-MEL-28 tumor cells) | IC50 (Colo205 tumor cells) | IC50 (ErbB2)
Nc1nc(-c2cccc(NC(=O)c3c(F)cccc3F)c2)c(-c2ccnc(Nc3cccc(CN4CCCC4)c3)n2)s1 [Example 13, N-{3-[2-Amino-5-(2-{[3-(1-pyrrolidinylmethyl)phenyl]amino}-4-pyrimidinyl)-1,3-thiazol-4-yl]phenyl}-2,6-difluorobenzamide] | < 100 nM | < 100 nM | 100 to 1000 nM | 100 to 1000 nM | < 100 nM | 100 to 1000 nM | > 1000 nM | 100 to 1000 nM | < 100 nM
CCN(CC)CCOc1cccc(Nc2nccc(-c3sc(N)nc3-c3cccc(NC(=O)c4c(F)cccc4F)c3)n2)c1 [Example 17, N-(3-{2-Amino-5-[2-({3-[2-(diethylamino)ethoxy]phenyl}amino)pyrimidiN-4-yl]-1,3-thiazol-4-yl}phenyl)-2,6-difluorobenzamide] | < 100 nM | < 100 nM | 100 to 1000 nM | > 1000 nM | < 100 nM | 100 to 1000 nM | > 1000 nM | 100 to 1000 nM | < 100 nM
CN(C)CCOc1cccc(Nc2nccc(-c3sc(N)nc3-c3cccc(NC(=O)c4c(F)cccc4F)c3)n2)c1 [Example 22, N-[3-(2-Amino-5-{2-[(3-{[2-(dimethylamino)ethyl]oxy}phenyl)amino]-4-pyrimidinyl}-1,3-thiazol-4-yl)phenyl]-2,6-difluorobenzamide] | < 100 nM | < 100 nM | 100 to 1000 nM | 100 to 1000 nM | < 100 nM | 100 to 1000 nM | 100 to 1000 nM | 100 to 1000 nM | < 100 nM
CNc1nc(-c2cccc(NC(=O)c3c(F)cccc3F)c2)c(-c2ccnc(Nc3cccc(CN4CCCC4)c3)n2)s1 [Example 23, 2,6-Difluoro-N-{3-[2-(methylamino)-5-(2-{[3-(1-pyrrolidinylmethyl)phenyl]amino}-4-pyrimidinyl)-1,3-thiazol-4-yl]phenyl}benzamide] | < 100 nM | < 100 nM | 100 to 1000 nM | 100 to 1000 nM | < 100 nM | 100 to 1000 nM | > 1000 nM | 100 to 1000 nM | < 100 nM
CNc1nc(-c2cccc(NC(=O)c3c(F)cccc3F)c2)c(-c2ccnc(Nc3ccc(OCCN(C)C)c(Cl)c3)n2)s1 [Example 24, N-{3-[5-{2-[(3-Chloro-4-{[2-(dimethylamino)ethyl]oxy}phenyl)amino]-4-pyrimidinyl}-2-(methylamino)-1,3-thiazol-4-yl]phenyl}-2,6-difluorobenzamide] | < 100 nM | < 100 nM | 100 to 1000 nM | 100 to 1000 nM | < 100 nM | 100 to 1000 nM | 100 to 1000 nM | 100 to 1000 nM | < 100 nM
CCNc1nc(-c2cccc(NC(=O)c3c(F)cccc3F)c2)c(-c2ccnc(Nc3ccc(CCN4CCCC4)c(F)c3)n2)s1 [Example 26, N-(3-{2-(Ethylamino)-5-[2-({3-fluoro-4-[2-(1-pyrrolidinyl)ethyl]phenyl}amino)-4-pyrimidinyl]-1,3-thiazol-4-yl}phenyl)-2,6-difluorobenzamide trifluoroacetate] | < 100 nM | 100 to 1000 nM | 100 to 1000 nM | 100 to 1000 nM | 100 to 1000 nM | 100 to 1000 nM | 100 to 1000 nM | 100 to 1000 nM | < 100 nM
